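The compound was tested at five concentrations on cells cultured in 96-well plates, with a 48-hour exposure period. GI50 is the concentration that inhibits growth by half.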 The source made the active and inactive calls. Rule as the data show it: active = GI50 up to about 1.1 µM and inactive = higher.
How the values were obtained:
Assay in all cases: NCI-60 cell line screen, 48 h
A549 = test system: A549
HCC 2998 = test system: HCC 2998
HCT-15 = test system: HCT-15
HL-60 = test system: HL-60
HOP-92 = test system: HOP-92
HT-29 = test system: HT-29
K562 = test system: K562
M14 = test system: M14
MCF7 = test system: MCF7
MDA-N = test system: MDA-N
MOLT-4 = test system: MOLT-4
NCI-H226 = test system: NCI-H226
SF-295 = test system: SF-295
SK-MEL-2 = test system: SK-MEL-2
SK-OV-3 = test system: SK-OV-3
SN12C = test system: SN12C
SNB-75 = test system: SNB-75
SR = test system: SR
U-251 = test system: U-251
UACC-257 = test system: UACC-257

SMILES	GI50 (A549)	GI50 (HCC 2998)	GI50 (HCT-15) [µM]	GI50 (HL-60)	GI50 (HOP-92)	GI50 (HT-29)	GI50 (K562)	GI50 (M14)	GI50 (MCF7)	GI50 (MDA-N)	GI50 (MOLT-4)	GI50 (NCI-H226)	GI50 (SF-295)	GI50 (SK-MEL-2)	GI50 (SK-OV-3)	GI50 (SN12C)	GI50 (SNB-75)	GI50 (SR)	GI50 (U-251)	GI50 (UACC-257)
COc1cccc(C(C#N)NC23CC4CC(CC(C4)C2)C3)c1 (stereo not given)	> 100 µM (inactive)	> 100 µM (inactive)	> 100	> 100 µM (inactive)	> 100 µM (inactive)	> 100 µM (inactive)	> 100 µM (inactive)	> 100 µM (inactive)	> 100 µM (inactive)	> 100 µM (inactive)	> 100 µM (inactive)	> 100 µM (inactive)	> 100 µM (inactive)	> 100 µM (inactive)	> 100 µM (inactive)	> 100 µM (inactive)	> 100 µM (inactive)	> 100 µM (inactive)	> 100 µM (inactive)	> 100 µM (inactive)
CC(C)(C)[Si](C)(C)OCC1C=CC(n2cnc3c(N)ncnc32)O1 (stereo not given)	> 100 µM (inactive)	> 100 µM (inactive)	53.1	9.02 µM (inactive)	9.04 µM (inactive)	53.5 µM (inactive)	9.1 µM (inactive)	23.8 µM (inactive)	30.1 µM (inactive)	26.6 µM (inactive)	10.1 µM (inactive)	19.2 µM (inactive)	55.2 µM (inactive)	39.4 µM (inactive)	81.1 µM (inactive)	35.9 µM (inactive)	16.6 µM (inactive)	15.1 µM (inactive)	32.1 µM (inactive)	36 µM (inactive)
Clc1nc(NC23CC4CC(CC(C4)C2)C3)nc(NC23CC4CC(CC(C4)C2)C3)n1	43.9 µM (inactive)	53.5 µM (inactive)	34.7	19.9 µM (inactive)	17.3 µM (inactive)	66.1 µM (inactive)	4.62 µM (inactive)	73.1 µM (inactive)	12.6 µM (inactive)	46.8 µM (inactive)	17.5 µM (inactive)	97.9 µM (inactive)	16.4 µM (inactive)	19.3 µM (inactive)	> 76.6 µM (inactive)	> 83.4 µM (inactive)	18 µM (inactive)	29 µM (inactive)	26.7 µM (inactive)	50.7 µM (inactive)
CCOC(=O)CCNC(=O)c1cc(C)cc2c1Oc1c(cc(C)cc1C(=O)NCCC(=O)OCC)S2	64 µM (inactive)	> 100 µM (inactive)	> 100	> 100 µM (inactive)	19.5 µM (inactive)	> 100 µM (inactive)	> 100 µM (inactive)	> 100 µM (inactive)	57.1 µM (inactive)	88.3 µM (inactive)	> 100 µM (inactive)	81.7 µM (inactive)	53.5 µM (inactive)	90.8 µM (inactive)	> 100 µM (inactive)	> 100 µM (inactive)	20.7 µM (inactive)	> 100 µM (inactive)	62.5 µM (inactive)	79.6 µM (inactive)
C=C1C[C@@H](O)[C@@H](Br)C(C)(C)[C@]12CCC(C)(Br)C(Cl)C2 (stereo not given in full)	> 50 µM (inactive)	> 50 µM (inactive)	> 50	1.03 µM (active)	> 50 µM (inactive)	6.1 µM (inactive)	> 50 µM (inactive)	> 50 µM (inactive)	> 50 µM (inactive)	> 50 µM (inactive)	> 50 µM (inactive)	41.3 µM (inactive)	> 50 µM (inactive)	> 50 µM (inactive)	> 50 µM (inactive)	> 50 µM (inactive)	> 50 µM (inactive)	> 50 µM (inactive)	> 50 µM (inactive)	> 50 µM (inactive)

Source: ChEMBL document CHEMBL1201862, “PubChem BioAssay data set” (2004)
